In patent US20260232720A1, “NEW MEDICAL USE OF SEVUPARIN IN THE TREATMENT OF ENDOTOXEMIA” (Modus Therapeutics AB, priority 2023, published 2026):
Where two headings read alike, the source gives them in different places.

What was measured:
healthy volunteers [1] = conditions: for Body temperature / Diastolic blood pressure / Heart rate / NRS feeling sick / Systolic blood pressure: LS Means, IV LPS 1 ng/kg
Excerpt: (§1) A randomized, placebo-controlled study to evaluate the effects of intravenous sevuparin on LPS reactions (first part), and the interaction between subcutaneous enoxaparin and sevuparin on coagulation responses in healthy volunteers (second part), has been performed.
(§2) Objectives for first part of the clinical study: To evaluate the effect of intarvenous (IV) sevuparin on safety and tolerability and inflammatory responses following an intravenous (IV) LPS challenge.
(§3) In the first part of the study, sevuparin (or matching placebo) is administered by IV infusion (bolus loading dose followed by continuous infusion over 6 hours); In the second part of the study, sevuparin and enoxaparin are given by subcutaneous injection.
(§4) The sevuparin dose was as follows in the first part of the study: • Group 1 (sevuparin low dose): loading bolus dose of 0.3 mg/kg bodyweight, followed by IV infusion at 0.08 mg/kg/h; • Group 2 (sevuparin intermediate dose): loading dose of 1 mg/kg bodyweight, followed by IV infusion at 0.25 mg/kg/h; • Group 3 (sevuparin high dose): loading dose of 3 mg/kg bodyweight, followed by IV infusion at 0.75 mg/kg/h.
(§5) In the first part of the study, 1 ng/kg bodyweight of LPS was administered intravenously.
(§6) In the first part of the study, a total of 48 male and female healthy volunteers were enrolled and randomized over 4 treatment groups (sevuparin low, intermediate or high dose or matching placebo). Each treatment group consisted of 12 healthy volunteers. All subjects underwent an intravenous LPS challenge.
(§7) In the first part of the current study, subjects are administered with intravenous LPS 30 min after the start of the infusion of sevuparin on study Day 1. LPS, purified lipopolysaccharide prepared from Escherichia Coli: 113: H10: K negative (U.S. Standard Reference Endotoxin) is used. This LPS batch was manufactured in the US by List Biological Laboratories. All participants received 1 ng/kg E. coli purified LPS, administered as a 2-minute infusion. To ensure that participants stay adequately hydrated, additionally saline (NaCl 0.9%) or glucose/saline was infused (2.5% glucose/0.45% sodium chloride) starting approximately 2 hours before LPS administration at a rate of 750 ml/h, until 6 h afterwards at a rate of 150 ml/h (Hijma et al., 2020). During infusion of study drug or placebo, infused over 6 hours at an infusion rate of 80 mL/h, the infusion rate of glucose/saline was lowered to 80 mL/h.
Evaluations of systolic and diastolic blood pressure, pulse rate, respiratory rate, and temperature is performed throughout the study. Pulse and blood pressure is taken after 5 minutes in the supine position. Automated oscillometric blood pressures and pulse rate is measured using a Dash 3000,
Subjective assessment of feeling sick is recorded by the subjects during the first part of the study (IV LPS infusion) on a numeric rating scale (NRS) electronically.
(§8) Throughout the Figures and tables related to the clinical study test results, the following abbreviations and its definitions are used: • IV LPS Placebo means subjects who have been challenged with intravenous LPS and thereafter received placebo intravenously as described above. • Sevuparin 0.3/0.08 means (sevuparin low dose): loading bolus dose of 0.3 mg/kg bodyweight, followed by 0.08 mg/kg/h intravenously; • Sevuparin 1/0.25 means (sevuparin intermediate dose): loading dose of 1 mg/kg bodyweight, followed by 0.25 mg/kg/h intravenously; • Sevuparin 3/0.75 means (sevuparin high dose): loading dose of 3 mg/kg bodyweight, followed by 0.75 mg/kg/h intravenously.

[2] = system: inflammatory biomarkers cytokines and C-Reactive Protein (CRP); conditions: for C-Reactive Protein / IL-6 in plasma / IL-8 in plasma / IL-10 in plasma / TNF-α in plasma: LS Means, IV LPS 1 ng/kg
Excerpt: as §1, §2
(§9) • Leucocyte differential • Cytokines (including IL-6, IL-8, IL-10 and TNF-α) • Flow cytometry (Neutrophils, monocyte subsets, T cells, B cells, NK cells, dendritic cells, including neutrophil extracellular traps) • Explorative biomarkers: acute phase reactants and components measurable in blood, serum and plasma of relevance for septic inflammation may be measured and reported separately.
as §3, §4, §5, §6, §7
Blood is collected at time points as shown in Table 1 below for the assessment of cytokines. Venous blood (4 mL) is collected in K2EDTA tubes. Plasma is collected after centrifugation at 2000×g for 20 minutes at room temperature and stored at −80° C., in 3×0.5 ml aliquots until analysis. Samples are analysed by Ardena Laboratories Assen.
as §8

healthy volunteers [3] = conditions: for Basophil count / Eosinophil count / Lymphocyte count / Monocyte count / Neutrophil count: LS Means, IV LPS 1 ng/kg
Excerpt: as §1, §2, §9, §3, §4, §5, §6, §7
Blood and other biological samples are collected for the following clinical laboratory tests: Haematology; Chemistry and electrolytes; Glucose; […] (after 4-hours fasting); […] (conjugated bilirubin is reported only when total bilirubin is outside the reference range); Virology; Urinalysis; Pregnancy (for women, serum pregnancy test is performed at screening and urine pregnancy test at other visits when scheduled, and if pregnancy is suspected during the study); Alcohol screening; and Urine drug screening.

[4] = IV LPS, in words, all doses vs placebo
[5] = sevuparin 0.3/0.08 (loading bolus 0.3 mg/kg, then 0.08 mg/kg/h IV)
[6] = sevuparin 1.0/0.25 (loading 1 mg/kg, then 0.25 mg/kg/h IV)
[7] = sevuparin 3.0/0.75 (loading 3 mg/kg, then 0.75 mg/kg/h IV)

sevuparin
respiratory rate compared to placebo (healthy volunteers [1]; FIG. 2, IV LPS, highest intravenously administered dose of sevuparin): improvement of the respiratory rate
therapeutic impact on body temperature (healthy volunteers [1]; [4]): did not have any therapeutic impact
therapeutic impact on diastolic blood pressure (healthy volunteers [1]; [4]): did not have any therapeutic impact
therapeutic impact on feeling sick (healthy volunteers [1]; [4]): did not have any therapeutic impact
therapeutic impact on heart rate (healthy volunteers [1]; [4]): did not have any therapeutic impact
therapeutic impact on systolic blood pressure (healthy volunteers [1]; [4]): did not have any therapeutic impact
Body temperature (healthy volunteers [1]; [5]): 37.13
Diastolic blood pressure (healthy volunteers [1]; [5]): 63.5 mm Hg
Heart rate (healthy volunteers [1]; [5]): 69.7 bpm
NRS feeling sick (healthy volunteers [1]; [5]): 1.9
Systolic blood pressure (healthy volunteers [1]; [5]): 115.5 mm Hg
Body temperature (healthy volunteers [1]; [6]): 36.93
Diastolic blood pressure (healthy volunteers [1]; [6]): 63.9 mm Hg
Heart rate (healthy volunteers [1]; [6]): 71.1 bpm
NRS feeling sick (healthy volunteers [1]; [6]): 1.9
Systolic blood pressure (healthy volunteers [1]; [6]): 117.3 mm Hg
Body temperature (healthy volunteers [1]; [7]): 36.97
Diastolic blood pressure (healthy volunteers [1]; [7]): 62.7 mm Hg
Heart rate (healthy volunteers [1]; [7]): 70.5 bpm
NRS feeling sick (healthy volunteers [1]; [7]): 2.0
Systolic blood pressure (healthy volunteers [1]; [7]): 114.0 mm Hg
therapeutic effect on C-Reactive Protein (CRP) ([2]; IV LPS, in words, vs placebo): no therapeutic effect
therapeutic effect on the inflammatory biomarkers cytokines ([2]; IV LPS, in words, vs placebo): no therapeutic effect
C-Reactive Protein [2, 5]: 10.893 mg/mL
IL-6 in plasma [2, 5]: 19.587 pg/mL
IL-8 in plasma [2, 5]: 19.393 pg/mL
IL-10 in plasma [2, 5]: 8.125 pg/mL
TNF-α in plasma [2, 5]: 5.574 pg/mL
C-Reactive Protein [2, 6]: 11.080 mg/mL
IL-6 in plasma [2, 6]: 16.012 pg/mL
IL-8 in plasma [2, 6]: 19.843 pg/mL
IL-10 in plasma [2, 6]: 11.825 pg/mL
TNF-α in plasma [2, 6]: 5.415 pg/mL
C-Reactive Protein [2, 7]: 11.853 mg/mL
IL-6 in plasma [2, 7]: 13.712 pg/mL
IL-8 in plasma [2, 7]: 17.820 pg/mL
IL-10 in plasma [2, 7]: 7.527 pg/mL
TNF-α in plasma [2, 7]: 5.039 pg/mL
change in basophils compared to placebo control (healthy volunteers [3]; IV LPS, in words): dose dependent pronounced increase
change in neutrophils compared to placebo control (healthy volunteers [3]; IV LPS, in words): dose dependent pronounced increase
change in lymphocytes compared to placebo control (healthy volunteers [3]; IV LPS, in words, FIG. 1): dose dependent pronounced increase
Basophil count (healthy volunteers [3]; [5]): 0.029 E9/L
Eosinophil count (healthy volunteers [3]; [5]): 0.114 E9/L
Lymphocyte count (healthy volunteers [3]; [5]): 1.046 E9/L
Monocyte count (healthy volunteers [3]; [5]): 0.335 E9/L
Neutrophil count (healthy volunteers [3]; [5]): 6.650 E9/L
Basophil count (healthy volunteers [3]; [6]): 0.032 E9/L
Eosinophil count (healthy volunteers [3]; [6]): 0.105 E9/L
Lymphocyte count (healthy volunteers [3]; [6]): 1.136 E9/L
Monocyte count (healthy volunteers [3]; [6]): 0.339 E9/L
Neutrophil count (healthy volunteers [3]; [6]): 5.788 E9/L
Basophil count (healthy volunteers [3]; [7]): 0.039 E9/L
Eosinophil count (healthy volunteers [3]; [7]): 0.117 E9/L
Lymphocyte count (healthy volunteers [3]; [7]): 1.369 E9/L
Monocyte count (healthy volunteers [3]; [7]): 0.376 E9/L
Neutrophil count (healthy volunteers [3]; [7]): 7.073 E9/L
